Results published in patent publication US9365522B2, “Pyrazole amide derivative” (AMGEN INC., priority 2015, dated 2016).

What follows are compounds tested against T1, human RORγ-LBD (Homo sapiens, UniProt P51449) (assay: ROR gamma coactivator peptide recruitment Alphascreen assay (RORγ-LBD binding to GRIP1 coactivator peptide)). Conditions: 5 nM human RORγ-LBD, 30 nM 7-β-hydroxycholesterol, 50 nM biotinylated GRIP1 coactivator peptide, overnight incubation at room temperature; read-out: result (pIC50, RORγ coactivator peptide recruitment Alphascreen assay) (converted).
T1 construct: made in house; host or cells: E. coli (BL-21)
T1 sequence (P51449 262-518): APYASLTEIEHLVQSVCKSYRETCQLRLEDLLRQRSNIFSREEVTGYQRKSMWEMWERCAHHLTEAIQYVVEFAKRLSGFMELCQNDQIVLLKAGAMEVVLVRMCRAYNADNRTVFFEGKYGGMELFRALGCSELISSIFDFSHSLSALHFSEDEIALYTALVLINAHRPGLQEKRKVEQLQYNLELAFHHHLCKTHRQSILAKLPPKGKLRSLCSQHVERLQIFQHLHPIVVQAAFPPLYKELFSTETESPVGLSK
Assay type: biochemical
Outline: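 His/Flag-tagged human RORγ-LBD (aa 262-518, E. coli-expressed, 5 nM) with agonist 7-β-hydroxycholesterol (30 nM) and biotinylated GRIP1 LXXLL peptide (50 nM) in HEPES pH 7.4 buffer, 2.5% DMSO. Compound 1-in-2 dilutions; Alphascreen bead signal read after overnight incubation at room temperature; pIC50 calculated.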

SMILES	IC50
C[C@@H]1C[C@@H](n2ncc(C(=O)N(CC(=O)c3c(Cl)cccc3Cl)CC3(C)CCC3)c2C(F)(F)F)CC[C@@H]1C(=O)O [Example 781, (1S,2R,4S)-4-(4-((2-(2,6-dichlorophenyl)-2-oxoethyl)((1-methylcyclobutyl)methyl)carbamoyl)-5-(trifluoromethyl)-1H-pyrazol-1-yl)-2-methylcyclohexanecarboxylic acid]	1.55 nM
C[C@@H]1C[C@@H](n2ncc(C(=O)N(CC(=O)c3c(Cl)cncc3Cl)CC3(C)CCC3)c2C(F)(F)F)CC[C@@H]1C(=O)O [Example 782, (1S,2R,4S)-4-(4-((2-(3,5-dichloro-4-pyridinyl)-2-oxoethyl)((1-methylcyclobutyl)methyl)carbamoyl)-5-(trifluoromethyl)-1H-pyrazol-1-yl)-2-methylcyclohexanecarboxylic acid]	3.98 nM
Cc1cc(Cl)c(C(=O)CN(C[C@@H]2CCC(C)(C)O2)C(=O)c2cnn([C@H]3CC[C@](C)(C(=O)O)CC3)c2C(F)(F)F)c(Cl)c1 [Example 783, trans-4-(4-((2-(2,6-dichloro-4-methylphenyl)-2-oxoethyl)(((2S)-5,5-dimethyltetrahydro-2-furanyl)methyl)carbamoyl)-5-(trifluoromethyl)-1H-pyrazol-1-yl)-1-methylcyclohexanecarboxylic acid]	3.89 nM
C[C@H](C(=O)O)[C@H]1CC[C@@H](n2ncc(C(=O)N(CC(=O)c3c(Cl)cncc3Cl)Cc3cc(F)cc(F)c3)c2C(F)(F)F)CC1 [Example 786, 2-(cis-4-(4-((2-(3,5-dichloro-4-pyridinyl)-2-oxoethyl)(3,5-difluorobenzyl)carbamoyl)-5-(trifluoromethyl)-1H-pyrazol-1-yl)cyclohexyl)propanoic acid]	34.7 nM
C[C@@H]1C[C@@H](n2ncc(C(=O)N(CC(=O)c3c(Cl)cccc3Cl)[C@H]3C[C@@H]4[C@H](C3)C4(C)C)c2C(F)(F)F)CC[C@@H]1C(=O)O [Example 787, (1S,2R,4S)-4-(4-((2-(2,6-dichlorophenyl)-2-oxoethyl)((1R,3r,5S)-6,6-dimethylbicyclo[3.1.0]hex-3-yl)carbamoyl)-5-(trifluoromethyl)-1H-pyrazol-1-yl)-2-methylcyclohexanecarboxylic acid]	2.09 nM
C[C@@H]1C[C@@H](n2ncc(C(=O)N(CC(=O)c3c(Cl)cncc3Cl)CC3(C)CC3)c2C(F)(F)F)CC[C@@H]1C(=O)O [Example 788, (1S,2R,4S)-4-(4-((2-(3,5-dichloro-4-pyridinyl)-2-oxoethyl)((1-methylcyclopropyl)methyl)carbamoyl)-5-(trifluoromethyl)-1H-pyrazol-1-yl)-2-methylcyclohexanecarboxylic acid]	17.4 nM
C[C@]1(CC(=O)O)CC[C@H](n2ncc(C(=O)N(CC(=O)c3c(Cl)cncc3Cl)Cc3cc(F)cc(F)c3)c2C(F)(F)F)CC1 [Example 789, (trans-4-(4-((2-(3,5-dichloro-4-pyridinyl)-2-oxoethyl)(3,5-difluorobenzyl)carbamoyl)-5-(trifluoromethyl)-1H-pyrazol-1-yl)-1-methylcyclohexyl)acetic acid]	2.09 nM
C[C@]1(CC(=O)O)CC[C@@H](n2ncc(C(=O)N(CC(=O)c3c(Cl)cncc3Cl)Cc3cc(F)cc(F)c3)c2C(F)(F)F)CC1 [Example 790, (cis-4-(4-((2-(3,5-dichloro-4-pyridinyl)-2-oxoethyl)(3,5-difluorobenzyl)carbamoyl)-5-(trifluoromethyl)-1H-pyrazol-1-yl)-1-methylcyclohexyl)acetic acid]	34.7 nM
CC(C)(C)CN(CC(=O)c1c(Cl)cncc1Cl)C(=O)c1cnn([C@H]2CC[C@](C)(CC(=O)O)CC2)c1C(F)(F)F [Example 791, (trans-4-(4-((2-(3,5-dichloro-4-pyridinyl)-2-oxoethyl)(2,2-dimethylpropyl)carbamoyl)-5-(trifluoromethyl)-1H-pyrazol-1-yl)-1-methylcyclohexyl)acetic acid]	5.25 nM
CC(C)(C)CN(CC(=O)c1c(Cl)cncc1Cl)C(=O)c1cnn([C@H]2CC[C@@](C)(CC(=O)O)CC2)c1C(F)(F)F [Example 792, (cis-4-(4-((2-(3,5-dichloro-4-pyridinyl)-2-oxoethyl)(2,2-dimethylpropyl)carbamoyl)-5-(trifluoromethyl)-1H-pyrazol-1-yl)-1-methylcyclohexyl)acetic acid]	102 nM
C[C@@H]1C[C@H](n2ncc(C(=O)N(CC(=O)c3c(Cl)cncc3Cl)CC(C)(C)C)c2C(F)(F)F)CC[C@H]1C(=O)O [Example 793, (1R,2R,4R)-4-(4-((2-(3,5-dichloro-4-pyridinyl)-2-oxoethyl)(2,2-dimethylpropyl)carbamoyl)-5-(trifluoromethyl)-1H-pyrazol-1-yl)-2-methylcyclohexanecarboxylic acid]	25.1 nM
C[C@]1(C(=O)O)CC[C@H](n2ncc(C(=O)N(CC(=O)c3c(Cl)ccc(F)c3Cl)CC3(C(F)(F)F)CC3)c2C(F)(F)F)CC1 [Example 798, (1r,4r)-4-(4-((2-(2,6-dichloro-3-fluorophenyl)-2-oxoethyl)((1-(trifluoromethyl)cyclopropyl)methyl)carbamoyl)-5-(trifluoromethyl)-1H-pyrazol-1-yl)-1-methylcyclohexanecarboxylic acid]	3.16 nM
C[C@]1(C(=O)O)CC[C@H](n2ncc(C(=O)N(CC(=O)c3c(Cl)cncc3Cl)CC3(C(F)(F)F)CCC3)c2C(F)(F)F)CC1 [Example 799, trans-4-(4-((2-(3,5-dichloro-4-pyridinyl)-2-oxoethyl)((1-(trifluoromethyl)cyclobutyl)methyl)carbamoyl)-5-(trifluoromethyl)-1H-pyrazol-1-yl)-1-methylcyclohexanecarboxylic acid]	3.89 nM
C[C@]1(C(=O)O)CC[C@H](n2ncc(C(=O)N(CC(=O)c3c(Cl)cncc3Cl)CC3(CF)CCC3)c2C(F)(F)F)CC1 [Example 800, trans-4-(4-((2-(3,5-dichloro-4-pyridinyl)-2-oxoethyl)((1-(fluoromethyl)cyclobutyl)methyl)carbamoyl)-5-(trifluoromethyl)-1H-pyrazol-1-yl)-1-methylcyclohexanecarboxylic acid]	3.02 nM
Cc1cc(Cl)c(C(=O)CN(CC2CCCCC2)C(=O)c2cnn([C@H]3CC[C@](C)(C(=O)O)CC3)c2C(F)(F)F)c(Cl)n1 [Example 801, trans-4-(4-((cyclohexylmethyl)(2-(2,4-dichloro-6-methyl-3-pyridinyl)-2-oxoethyl)carbamoyl)-5-(trifluoromethyl)-1H-pyrazol-1-yl)-1-methylcyclohexanecarboxylic acid]	8.51 nM
C[C@@H]1C[C@@H](n2ncc(C(=O)N(CC(=O)c3c(Cl)cncc3Cl)CC(C)(C)C(F)(F)F)c2C(F)(F)F)CC[C@@H]1C(=O)O [Example 802, (1S,2R,4S)-4-(4-((2-(3,5-dichloro-4-pyridinyl)-2-oxoethyl)(3,3,3-trifluoro-2,2-dimethylpropyl)carbamoyl)-5-(trifluoromethyl)-1H-pyrazol-1-yl)-2-methylcyclohexanecarboxylic acid]	3.02 nM
CC(C)CCN(CC(=O)c1c(Cl)cncc1Cl)C(=O)c1cnn([C@H]2CC[C@H](C(=O)O)[C@H](C)C2)c1C(F)(F)F [Example 803, (1S,2R,4S)-4-(4-((2-(3,5-dichloro-4-pyridinyl)-2-oxoethyl)(3-methylbutyl)carbamoyl)-5-(trifluoromethyl)-1H-pyrazol-1-yl)-2-methylcyclohexanecarboxylic acid]	63.1 nM
CC(C)CCN(CC(=O)c1c(Cl)cccc1Cl)C(=O)c1cnn([C@H]2CC[C@H](C(=O)O)[C@H](C)C2)c1C(F)(F)F [Example 804, (1S,2R,4S)-4-(4-((2-(2,6-dichlorophenyl)-2-oxoethyl)(3-methylbutyl)carbamoyl)-5-(trifluoromethyl)-1H-pyrazol-1-yl)-2-methylcyclohexanecarboxylic acid]	53.7 nM
Cc1cc(F)c(C(=O)CN(C[C@]2(C)CCCO2)C(=O)c2cnn([C@H]3CC[C@](C)(C(=O)O)CC3)c2C(F)(F)F)c(Cl)c1 [Example 805, trans-4-(4-((2-(2-chloro-6-fluoro-4-methylphenyl)-2-oxoethyl)(((2S)-2-methyltetrahydro-2-furanyl)methyl)carbamoyl)-5-(trifluoromethyl)-1H-pyrazol-1-yl)-1-methylcyclohexanecarboxylic acid]	11.2 nM
Cc1cc(F)c(C(=O)CN(C[C@@]2(C)CCCO2)C(=O)c2cnn([C@H]3CC[C@](C)(C(=O)O)CC3)c2C(F)(F)F)c(Cl)c1 [Example 806, trans-4-(4-((2-(2-chloro-6-fluoro-4-methylphenyl)-2-oxoethyl)(((2R)-2-methyltetrahydro-2-furanyl)methyl)carbamoyl)-5-(trifluoromethyl)-1H-pyrazol-1-yl)-1-methylcyclohexanecarboxylic acid]	102 nM
C[C@]1(C(=O)O)CC[C@H](n2ncc(C(=O)N(CC(=O)c3c(Cl)cncc3Cl)C[C@H]3CCCO3)c2C(F)(F)F)CC1 [Example 808, trans-4-(4-((2-(3,5-dichloro-4-pyridinyl)-2-oxoethyl)((2R)-tetrahydro-2-furanylmethyl)carbamoyl)-5-(trifluoromethyl)-1H-pyrazol-1-yl)-1-methylcyclohexanecarboxylic acid]	186 nM
C[C@@H]1C[C@@H](n2ncc(C(=O)N3CC4(CC=CC4)C[C@@H]3Cc3c(Cl)cncc3Cl)c2C(F)(F)F)CC[C@@H]1C(=O)O [Example 809, (1S,2R,4S)-4-(4-(((3R)-3-((3,5-dichloro-4-pyridinyl)methyl)-2-azaspiro[4.4]non-7-en-2-yl)carbonyl)-5-(trifluoromethyl)-1H-pyrazol-1-yl)-2-methylcyclohexanecarboxylic acid]	17.8 nM
